# Entries after “also recorded” stand apart in the source; their conditions may differ.
# Columns and labels:
# [1] = tested on: everted sacs of rat small intestine (jejunum); test: Paracellular (lucifer yellow) and transcellular (imipramine) marker permeability across everted gut sac with or without TPGS; format: in vitro ADME
# Experimental: (§1) The everted sac method was used as previously described ([25]). Everted intestinal sacs were prepared by quickly removing the small intestine from starved rats killed under CO2-anesthesia. The jejunum was excised, flushed through several times with saline solution at room temperature and placed immediately into oxygenated buffer solution at 37°C. Then the intestine was gently everted over a steel rod, filled with fresh oxygenated buffer solution and divided into sacs approximately 4.5 cm in length with silk suture. […] At the defined time points sacs were removed and blotted dry. The sacs were cut open and the serosal fluid was drained into small Eppendorf vial to determine the drug concentration. The area of each sac was calculated closely. Each sac was weighed before and after fluid collection to calculate accurately the volume inside the sac.
# (§2) The chromatographic data was acquired by Chromgate 3.1 software from Knauer. Analyses were carried out at ambient temperature on a Chromolith Performance RP-18e (100 mm 4.6 mm i.d., Merck) coupled with a Chromolith RP-18e guard cartridge (5.0 mm 4.6 mm i.d., Merck).
# [2] = tested on: everted sacs of rat small intestine (jejunum); test: Etoposide mucosal-to-serosal transport across everted gut sac in absence or presence of excipients/P-gp inhibitor; format: in vitro ADME; conditions: etoposide 25 μg/mL; verapamil 100 μg/mL, TPGS 0.002-0.1 mg/mL, PEG 400 0.05, 0.1 and 0.5% w/v; compared to control
# Experimental: as §1, §2
# [3] = tested on: everted sacs of rat small intestine (jejunum); test: LDH release of the everted gut sac; conditions: TPGS 0.1 mg/mL, PEG 0.5% w/v, 90 min
# Experimental: The viability and any possible damage of the gut were evaluated by measuring the release of the cytosolic enzyme lactic dehydrogenase (LDH) as an indicator of cell damage ([18]). The LDH activity was determined in the incubation media in the absence or presence of the excipients using LDH-P kit from Kimia pajouhan (Tehran, Iran). The results were calculated as U/L/cm^2 of sac area (1 unit reduces 10^-6 mol pyruvate per min at pH of 7.5). The influence of excipients (using the maximum concentrations) on the viability of gut sac was measured at 30, 60 and 90 min and compared to the control group (without adding any excipient).
Permeability of lucifer yellow ([1]; in absence of TPGS),Permeability of lucifer yellow ([1]; in presence of TPGS 0.1 mg/mL),Effect on absorptive transport/permeability of etoposide (in words) [2],LDH release in presence of excipient versus control [3],Substance
9.3 ± 0.03 × 10^-6 cm/s,9.65 ± 0.6 × 10^-6 cm/s,–,–,Lucifer yellow
–,–,no effect; also recorded: not affected,not notably changed,PEG 400

# From publication PMC3813364 (Iranian Journal of Pharmaceutical Research : IJPR, 2013)
